Reference: article PMC8172068 (PLoS ONE, 2021)
“Also recorded” adds a separate entry of the source. Where a name gives a salt, the structure may show the parent alone.

B1: β-Casein: a 30 kDa protein containing 5 serine residues (protein, UniProt P02666 16-224, looked up)
Beta-casein: RELEELNVPGEIVESLSSSEESITRINKKIEKFQSEEQQQTEDELQDKIHPFAQTQSLVYPFPGPIPNSLPQNIPPLTQTPVVVPPFLQPEVMGVSKVKEAMAPKHKEMPFPKYPVEPFTESQSLTLTDVENLHLPLPLLQSWMHQPHQPLPPTVMFPPQSVLSLSQSKVLPVPQKAVPYPQRDMPIQAFLLYQEPVLGPVRGPFPIIV

Target: T1, Acinetobacter baumannii rAcpA (Acinetobacter baumannii, UniProt A0ABX6CG12)
Test: biochemical
Type: biochemical
Conditions: not given

Row | Molecule | IC50 [µM] | Percent Control [%] | sensitivity of rAcpA to compound | concentration inhibiting 50% [% v/v] | stimulation of PNPP hydrolysis
1 | O[C@@H](CS)[C@@H](O)CS [Dithiothreitol] | 3000 |  |  |  | 
2 | C=C1[C@@H](O)[C@@H]2O[C@]3(CC[C@H](/C=C/[C@@H](C)[C@@H]4CC(C)=C[C@@]5(O[C@H](C[C@@](C)(O)C(=O)O)CC[C@H]5O)O4)O3)CC[C@H]2O[C@@H]1[C@@H](O)C[C@H](C)[C@H]1O[C@@]2(CCCCO2)CC[C@H]1C [Okadaic acid] |  | 100 | insensitive; also recorded: did not inhibit |  | 
3 | O=P(O)(O)OP(=O)(O)O [Sodium Pyrophosphate] | 2500 |  |  |  | 
4 | O=C(O)C(O)C(O)C(=O)O (centres unmarked) [Sodium Tartrate] | 2000 |  |  |  | 
5 | Triton X100 |  |  |  | 0.32 | 
6 | Tween 20 |  | 140 |  |  | ~ 1.4 fold

Same assay, conditions: pH 6; read-out: IC50

Row | Molecule | IC50 [µM]
7 | O[C@H](CS)[C@@H](O)CS [Dithioerythritol] | 2000
8 | O=C(O)CN(CCN(CC(=O)O)CC(=O)O)CC(=O)O [EDTA] | 1250
9 | [O]=[Mo](=[O])([OH])[OH] [Molybdate] | 350
10 | CCCCCCCCCCCCOS(=O)(=O)[O-].[Na+] [Sodium Dodecyl Sulfate] | 100
11 | [F-].[Na+] [Sodium Fluoride] | 6000
12 | O=P(O)(O)O [Sodium Phosphate] | 9000
13 | [Na+].[Na+].[Na+].[O]=[V]([O-])([O-])[O-] [Vanadate, sodium orthovanadate] | 125
14 | OCCS [β-Mercaptoethanol] | 10000
15 | Triton X100 | 5100

Same assay, conditions: read-out: IC50

Row | Molecule | IC50 [µM]
16 | [O]=[Mo](=[O])([OH])[OH] [Molybdate] | 350
17 | CCCCCCCCCCCCOS(=O)(=O)[O-].[Na+] [Sodium Dodecyl Sulfate] | 100
18 | [Na+].[Na+].[Na+].[O]=[V]([O-])([O-])[O-] [Vanadate, sodium orthovanadate] | 125

Target: T1, Acinetobacter baumannii rAcpA
Test: Hydrolysis of various phosphorylated compounds by rAcpA (released phosphate)
Type: biochemical
Conditions: phosphate released relative to paranitrophenol released from PNPP x100; compound at 0.1 mM final concentration
Description: All incubations were carried out for 30 minutes at 37 °C after which time reactions were placed in an ice slurry for 3 minutes followed by addition of enzyme to the respective blanks and reactions were terminated by heating at 65 °C for 10 minutes followed by immersion in an ice slurry for 3 minutes. Released phosphate was determined by addition of 1.0 mL BIOMOL GREEN phosphate reagent (Enzo Life Sciences), and monitored at 620 nm using a Genesys 10 UV Scanning Spectrophotometer (Thermo Scientific). Paranitrophenol was monitored at 405 nm following addition of 1.7 mL 0.5 M Glycine buffer, pH 10. Following subtraction of blank values, paranitrophenol and released phosphate were quantitated using paranitrophenol and phosphate standard curves, respectively. […] Specific activity is expressed as nmoles paranitrophenol or free phosphate liberated mg^-1s^-1.

Row | Molecule | Relative Activity [%]
19 | K-R-pT-I-R-R [Threonine Phosphopeptide] | 0.0
20 | R-R-A-pS-V-A [Serine Phosphopeptide] | 0.0
21 | T-S-T-E-P-Q-pY-Q-P-G-E-N-L [Tyrosine Phosphopeptide] | 20.0
22 | B1 | 1.2

Same assay, conditions: phosphate released relative to paranitrophenol released from PNPP x100; compound at 0.1 mM final concentration; listed as serine phosphopeptide

Row | Molecule | Relative Activity [%]
23 | R-R-A-pS-V-A [Serine Phosphopeptide] | 0

Same assay, conditions: phosphate released relative to paranitrophenol released from PNPP x100; compound at 0.1 mM final concentration; listed as threonine phosphopeptide

Row | Molecule | Relative Activity [%]
24 | K-R-pT-I-R-R [Threonine Phosphopeptide] | 0

Same assay, conditions: phosphate released relative to paranitrophenol released from PNPP x100; compound at 0.1 mM final concentration; listed as tyrosine phosphopeptide

Row | Molecule | Relative Activity [%]
25 | T-S-T-E-P-Q-pY-Q-P-G-E-N-L [Tyrosine Phosphopeptide] | 20

Same assay, conditions: phosphate released relative to paranitrophenol released from PNPP x100; compound at 2.0 mM final concentration

Row | Molecule | Relative Activity [%]
26 | Nc1ncnc2c1ncn2[C@@H]1O[C@H](CO)[C@@H](OP(=O)(O)O)[C@H]1O [3’-AMP] | 63.0
27 | Nc1ncnc2c1ncn2[C@@H]1O[C@H](COP(=O)(O)OP(=O)(O)O)[C@@H](O)[C@H]1O [ADP] | 1.9
28 | Nc1ncnc2c1ncn2[C@@H]1O[C@H](COP(=O)(O)O)[C@@H](O)[C@H]1O [AMP] | 27.0
29 | Nc1ncnc2c1ncn2[C@@H]1O[C@H](COP(=O)(O)OP(=O)(O)OP(=O)(O)O)[C@@H](O)[C@H]1O [ATP] | 1.1
30 | Nc1ccn([C@@H]2O[C@H](COP(=O)(O)O)[C@@H](O)[C@H]2O)c(=O)n1 [CMP] | 4.1
31 | O=C(COP(=O)(O)O)[C@@H](O)[C@H](O)[C@H](O)COP(=O)(O)O [Fructose-1,6-bisphosphate] | 6.6
32 | Nc1nc2c(ncn2[C@@H]2O[C@H](COP(=O)(O)OP(=O)(O)O)[C@@H](O)[C@H]2O)c(=O)[nH]1 [GDP] | 1.0
33 | O=P(O)(O)O[C@H]1O[C@H](CO)[C@H](O)[C@H](O)[C@H]1O [Galactose-1-Phosphate] | 0.0
34 | O=C[C@H](O)[C@@H](O)[C@H](O)[C@H](O)COP(=O)(O)O [Glucose-6-Phosphate] | 2.7
35 | O=c1[nH]cnc2c1ncn2[C@@H]1O[C@H](COP(=O)(O)OP(=O)(O)O)[C@@H](O)[C@H]1O [IDP] | 0.5
36 | O=C[C@@H](O)[C@@H](O)[C@H](O)[C@H](O)COP(=O)(O)O [Mannose-6-Phosphate] | 10.6
37 | NC(=O)C1=CN([C@@H]2O[C@H](COP(=O)(O)OP(=O)(O)OC[C@H]3O[C@@H](n4cnc5c(N)ncnc54)[C@H](OP(=O)(O)O)[C@@H]3O)[C@@H](O)[C@H]2O)C=CC1 [NADPH] | 3.5
38 | NC(=O)c1ccc[n+]([C@@H]2O[C@H](COP(=O)([O-])OP(=O)(O)OC[C@H]3O[C@@H](n4cnc5c(N)ncnc54)[C@H](OP(=O)(O)O)[C@@H]3O)[C@@H](O)[C@H]2O)c1 [NADP^+] | 3.7
39 | C=C(OP(=O)(O)O)C(=O)O [PEP] | 7.6
40 | N[C@@H](COP(=O)(O)O)C(=O)O [Phospho-L-Serine] | 0.4
41 | C[C@@H](OP(=O)(O)O)[C@H](N)C(=O)O [Phospho-L-Threonine] | 4.5
42 | N[C@@H](Cc1ccc(OP(=O)(O)O)cc1)C(=O)O [Phospho-L-Tyrosine] | 31.5
43 | C[N+](C)(C)CCOP(=O)(O)O [Phosphocholine] | 2.0
44 | NCCOP(=O)(O)O [Phosphoethanolamine] | 1.8
45 | O=P(O)(O)O[C@H]1[C@H](OP(=O)(O)O)[C@@H](OP(=O)(O)O)[C@H](OP(=O)(O)O)[C@@H](OP(=O)(O)O)[C@H]1OP(=O)(O)O [Phytic acid] | 0.0
46 | Cc1ncc(COP(=O)(O)O)c(C=O)c1O [Pyridoxal Phosphate] | 35.3
47 | O=C[C@H](O)[C@H](O)[C@H](O)COP(=O)(O)O [Ribose-5-Phosphate] | 20.0
48 | Cc1cn([C@H]2C[C@H](O)[C@@H](COP(=O)(O)OP(=O)(O)O)O2)c(=O)[nH]c1=O [TDP] | 3.0
49 | Cc1cn([C@H]2C[C@H](O)[C@@H](COP(=O)(O)O)O2)c(=O)[nH]c1=O [TMP] | 27.3
50 | Cc1ncc(C[n+]2csc(CCOP(=O)(O)O)c2C)c(N)n1 [Thiamine Monophosphate] | 12.3
51 | Cc1ncc(C[n+]2csc(CCO[P@](=O)(O)OP(=O)(O)O)c2C)c(N)n1 [Thiamine Pyrophosphate] | 3.6
52 | O=P(O)(O)OC[C@H]1O[C@H](O[C@H]2O[C@H](CO)[C@@H](O)[C@H](O)[C@H]2O)[C@H](O)[C@@H](O)[C@@H]1O [Trehalose-6-Phosphate] | 4.0
53 | O=c1ccn([C@@H]2O[C@H](COP(=O)(O)OP(=O)(O)O)[C@@H](O)[C@H]2O)c(=O)[nH]1 [UDP] | 1.8
54 | O=c1ccn([C@@H]2O[C@H](COP(=O)(O)O)[C@@H](O)[C@H]2O)c(=O)[nH]1 [UMP] | 8.7
55 | O=P(O)(O)OC(CO)CO [β-Glycerol Phosphate] | 40.0

Same assay, conditions: phosphate released relative to paranitrophenol released from PNPP x100; compound at 2.0 mM final concentration; listed as galactose-1-phosphate

Row | Molecule | Relative Activity
56 | O=P(O)(O)O[C@H]1O[C@H](CO)[C@H](O)[C@H](O)[C@H]1O [Galactose-1-Phosphate] | not hydrolyzed

Same assay, conditions: phosphate released relative to paranitrophenol released from PNPP x100; compound at 2.0 mM final concentration; listed as phytic acid

Row | Molecule | Relative Activity
57 | O=P(O)(O)O[C@H]1[C@H](OP(=O)(O)O)[C@@H](OP(=O)(O)O)[C@H](OP(=O)(O)O)[C@@H](OP(=O)(O)O)[C@H]1OP(=O)(O)O [Phytic acid] | not hydrolyzed

Target: T1, Acinetobacter baumannii rAcpA
Test: not given
Type: biochemical
Conditions: pH 6

Row | Molecule | PNPP hydrolysis as percent of that observed for NiCl2 [%]
58 | CoCl2 | 76

Same assay, conditions: pH 6.0, divalent cation 2 mM final concentration

Row | Molecule | PNPP hydrolysis as percent of that observed for NiCl2
59 | [Cl-].[Cl-].[Mg+2] [MgCl2] | 85%
60 | [Cl][Mn][Cl] [MnCl2] | 50%
61 | [Cl][Ni][Cl] [NiCl2] | Maximum hydrolysis
62 | [Cl-].[Cl-].[Zn+2] [ZnCl2] | 11%
63 | mercury | very inhibitory

Target: T1, Acinetobacter baumannii rAcpA
Test: rAcpA enzymatic kinetics with PNPP (Lineweaver-Burk)
Type: biochemical
Conditions: PNPP 0.10–10.0 mM, 0.149 μg rAcpA, Lineweaver-Burk plot
Description: Unless indicated otherwise, reaction mixtures contained 2.0 mM PNPP (Sigma Chemical Co.) or phosphorylated compounds (Sigma Chemical Co.), 0.20 M MES (Sigma Chemical Co.) buffer, pH 6.0, 2.0 mM NiCl2, and 0.080–0.30 μg total Acinetobacter baumannii rAcpA protein, and were brought to a final concentration of 0.186 μg/μL protein with addition of bovine serum albumin (BSA, BioRad Laboratories) in a total reaction volume of 200 μL (determination of released phosphate) or 300 μL (determination of released paranitrophenol). All incubations were carried out for 30 minutes at 37 °C after which time reactions were placed in an ice slurry for 3 minutes followed by addition of enzyme to the respective blanks and reactions were terminated by heating at 65 °C for 10 minutes followed by immersion in an ice slurry for 3 minutes. Released phosphate was determined by addition of 1.0 mL BIOMOL GREEN phosphate reagent (Enzo Life Sciences), and monitored at 620 nm using a Genesys 10 UV Scanning Spectrophotometer (Thermo Scientific). Paranitrophenol was monitored at 405 nm following addition of 1.7 mL 0.5 M Glycine buffer, pH 10. Following subtraction of blank values, paranitrophenol and released phosphate were quantitated using paranitrophenol and phosphate standard curves, respectively. All reactions, i.e., generation of paranitrophenol and release of free phosphate were linear with both time (30 minutes) and assay protein (0.30 μg, ~ 13.2 nM). Specific activity is expressed as nmoles paranitrophenol or free phosphate liberated mg^-1s^-1.
The effect of increasing PNPP substrate on Acinetobacter baumannii rAcpA activity was determined.
Fig 4 Determination of Km and Vmax. Enzymatic activity (0.149 μg rAcpA) was determined over a broad range of PNPP concentrations (0.10–10.0 mM) in replicates of five for each substrate concentration tested and corresponding blank. Km and Vmax values were derived from standard Lineweaver-Burk plot analysis. Error bars represent 1 standard deviation from the mean.

Row | Molecule | Km [µM] | Vmax [pmol/s]
64 | O=[N+]([O-])c1ccc(OP(=O)(O)O)cc1 [PNPP] | 90 | 19.2

Same assay, conditions: calculated on the basis of 37 kDa

Row | Molecule | turnover number (kcat) [s⁻¹]
65 | O=[N+]([O-])c1ccc(OP(=O)(O)O)cc1 [PNPP] | 4.80
